A short description of data set [1]: Human microsome stability assay. Particulars: for Clearance of Human microsome: 1 μM test compound, 0.5 mg/mL liver microsomal protein, 37° C., pH 7.4; for human liver microsome stability (in words): qualitative statement. Type of data set: in vitro ADME. The method, then:
The human microsomal stability assay is used for early assessment of metabolic stability of a test compound in human liver microsomes.
Human liver microsomes (Cat. NO.: 452117, Corning, USA; Cat. NO.: H2610, Xenotech, USA) were preincubated with test compound for 10 minutes at 37° C. in 100 mM potassium phosphate buffer, pH 7.4. The reactions were initiated by adding NADPH regenerating system. The final incubation mixtures contained 1 μM test compound, 0.5 mg/mL liver microsomal protein, 1 mM MgCl2, 1 mM NADP, 1 unit/mL isocitric dehydrogenase and 6 mM isocitric acid in 100 mM potassium phosphate buffer, pH 7.4. After incubation times of 0, 3, 6, 9, 15 and 30 minutes at 37° C., 300 μL of cold acetonitrile (including internal standard) was added to 100 μL incubation mixture to terminate the reaction. Following precipitation and centrifugation, the amount of compound remaining in the samples were determined by LC-MS/MS. Controls of no NADPH regenerating system at zero and 30 minutes were also prepared and analyzed.
In general terms: Microsomes from liver hold many membrane-bound enzymes, among them those of drug oxidation.

The target in data set [2] is T1, TLR9 (Homo sapiens, UniProt Q9NR96).
T1 sequence (Q9NR96 26-1032): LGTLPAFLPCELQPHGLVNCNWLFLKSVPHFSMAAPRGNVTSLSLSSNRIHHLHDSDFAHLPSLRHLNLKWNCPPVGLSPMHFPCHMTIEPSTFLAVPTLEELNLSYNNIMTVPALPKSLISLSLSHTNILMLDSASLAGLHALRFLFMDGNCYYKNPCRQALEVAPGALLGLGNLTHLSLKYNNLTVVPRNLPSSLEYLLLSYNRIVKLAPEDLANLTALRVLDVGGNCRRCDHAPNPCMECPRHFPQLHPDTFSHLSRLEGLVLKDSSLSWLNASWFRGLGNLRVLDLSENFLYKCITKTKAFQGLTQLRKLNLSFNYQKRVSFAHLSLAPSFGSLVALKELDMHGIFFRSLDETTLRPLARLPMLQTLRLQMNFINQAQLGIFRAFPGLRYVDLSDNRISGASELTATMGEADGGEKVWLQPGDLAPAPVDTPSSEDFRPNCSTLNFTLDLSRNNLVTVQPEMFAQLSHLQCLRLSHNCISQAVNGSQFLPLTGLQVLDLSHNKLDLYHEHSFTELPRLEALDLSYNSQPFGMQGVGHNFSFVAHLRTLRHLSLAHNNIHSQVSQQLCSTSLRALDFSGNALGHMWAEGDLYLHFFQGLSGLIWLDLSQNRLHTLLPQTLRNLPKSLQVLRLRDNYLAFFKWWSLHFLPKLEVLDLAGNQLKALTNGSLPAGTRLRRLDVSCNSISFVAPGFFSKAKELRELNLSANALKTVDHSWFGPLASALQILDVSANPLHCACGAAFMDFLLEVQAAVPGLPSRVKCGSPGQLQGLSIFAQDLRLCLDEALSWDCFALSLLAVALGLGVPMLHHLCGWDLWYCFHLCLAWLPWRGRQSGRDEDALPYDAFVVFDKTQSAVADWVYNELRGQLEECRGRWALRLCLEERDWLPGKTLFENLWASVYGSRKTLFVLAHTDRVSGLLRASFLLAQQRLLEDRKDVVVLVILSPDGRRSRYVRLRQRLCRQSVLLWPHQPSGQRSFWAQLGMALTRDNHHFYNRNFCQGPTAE
Particulars: qualitative statement on compounds of WO2018047081; cited from earlier work.

Regarding `C[C@H]1CN(c2ccnc3c2cnn3C)Cc2ccc(N3C[C@@H](N)[C@](C)(O)C3)cc21` [Example 36, (3R,4R)-4-amino-3-methyl-1-[(4R)-4-methyl-2-(1-methylpyrazolo[3,4-b]pyridin-4-yl)-3,4-dihydro-1H-isoquinolin-6-yl]pyrrolidin-3-ol], the “Clearance of Human microsome” value in data set [1] amounted to 6.2 mL/min/kg.

Take `Cc1cc(N2CCc3c(c(C)nn3CC34CCC(NC(=O)[C@@H]5COCCN5)(CC3)CC4)C2)c2cnn(C)c2n1` [Example N8, reference compound]: the “TLR9 activity (in words)” value in data set [2] is “much lower TLR9 activity”. Also, in data set [1], the “Clearance of Human microsome” value came out at 16.3 mL/min/kg and the “human liver microsome stability (in words)” value is “poor human liver microsome stability”.

In the case of `Cc1cc(N2CCc3c(c(C)nn3CC34CCC(N(C)C5CCC5)(CC3)CC4)C2)c2cnn(C)c2n1` [Example N79, reference compound], the “TLR9 activity (in words)” value in data set [2] is reported as “best TLR9 activity”. In addition, in data set [1], the “Clearance of Human microsome” value stood at 18.2 mL/min/kg and the “human liver microsome stability (in words)” value is “poor human liver microsome stability”.

As for `C[C@H]1CN(c2ccnc3c2cnn3C)Cc2ccc(N3CC[N+](C)(C)CC3)cc21.[Cl-]` [Example 39, (4R)-6-(4,4-dimethylpiperazin-4-ium-1-yl)-4-methyl-2-(1-methylpyrazolo[3,4-b]pyridin-4-yl)-3,4-dihydro-1H-isoquinoline chloride], in data set [1], the “Clearance of Human microsome” value is reported as 6.2 mL/min/kg.

Source of the values: patent US20240317735A1, “HYDROISOQUINOLINE OR HYDRONAPHTHYRIDINE COMPOUNDS FOR THE TREATMENT OF AUTOIMMUNE DISEASE” (Hoffmann-La Roche Inc., priority 2020, published 2024).
